The target in data set [1] is T1, HSA (Homo sapiens, UniProt P02768). Details: purchased Sigma Aldrich (St. Louis, Mo.). The note with it: cited from earlier work; for Kd: binding to HSA, read-out: Average Literature KD; for reported HSA binding activity: literature report.
Data set [2] deals with T1, HSA. Description: Drug screening: HSA binding constants from DSC thermograms. The note with it: for Measured HSA binding (cell spanning the measured KD columns; same in text): result in words. On the technique in general: Differential scanning calorimetry records heat flow against a reference as temperature is scanned.
Description: Ligand solubilization: Stock solutions of aqueous insoluble ligands in organic solvents were pipetted into microcentrifuge tubes to yield a desired amount of drug for a 1 mL solution. The microcentrifuge tubes were placed into a vacuum concentrator (Savant SpeedVac Model SC100), and the organic solvents were evaporated, resulting in solid drug in the tube. To each tube, HSA is added at a predetermined concentration with standard buffer to provide a 1 mL working solution.
In total binding of 28 drug compounds to HSA was examined by obtaining thermograms.
The next data set concerns human plasma. Description: DSC thermograms of plasma with ligand. The data set is classed as binding.
The target in data set [3] is T2, human serum albumin (HSA) (Homo sapiens, UniProt P02768).
T2 construct: purchased Sigma Aldrich (St. Louis, Mo.)
T2 sequence (P02768 25-609): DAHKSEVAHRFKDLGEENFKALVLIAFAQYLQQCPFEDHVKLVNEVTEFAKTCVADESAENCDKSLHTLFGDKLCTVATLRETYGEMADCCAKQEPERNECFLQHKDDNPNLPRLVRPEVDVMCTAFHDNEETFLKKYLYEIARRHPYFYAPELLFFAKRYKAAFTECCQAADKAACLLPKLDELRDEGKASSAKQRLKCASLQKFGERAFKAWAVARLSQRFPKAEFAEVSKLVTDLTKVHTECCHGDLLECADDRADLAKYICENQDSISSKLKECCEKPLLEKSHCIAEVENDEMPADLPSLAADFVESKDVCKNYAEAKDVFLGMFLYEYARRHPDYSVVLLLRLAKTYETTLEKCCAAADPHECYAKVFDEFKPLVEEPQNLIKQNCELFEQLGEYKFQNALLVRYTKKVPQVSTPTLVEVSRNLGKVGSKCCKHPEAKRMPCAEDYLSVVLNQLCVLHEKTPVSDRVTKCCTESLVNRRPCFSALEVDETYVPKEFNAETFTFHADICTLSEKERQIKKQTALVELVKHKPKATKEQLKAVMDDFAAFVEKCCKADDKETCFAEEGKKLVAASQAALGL
Description: DSC thermograms of HSA with ligand (single-ligand titration). The data set is classed as binding. Here is the method:
Chemicals and reagents: Plasma and highly pure plasma proteins are sourced from commercial suppliers. Standard reagents are sourced from commercial suppliers. Samples are prepared in standard phosphate-buffered saline (PBS) buffer. In some examples, human plasma and serum albumin were purchased from Sigma Aldrich (St. Louis, Mo.) and received as lyophilized powder. Plasma was product number: P9523, lot number: SLBT0202. […] In vivo, the standard state of HSA is most certainly bound to some extent by fatty acids. Plasma and HSA stock solutions were prepared by re-suspending the appropriate amount of powder in buffer. Samples were prepared by diluting stock solutions to a final concentration of 1.5-2.0 mg/mL.
Protein concentration was approximately 2 mg/ml.
In a DSC melting experiment, the supplemental power supplied to the sample cell (in μW) necessary to keep the sample temperature equal to the reference temperature is continually monitored. […] Supplemental power is directly related to the molar heat capacity at constant pressure, ΔCp. Curves of ΔCp versus T provide an evaluation of the thermodynamic enthalpy. To enable direct comparisons in some cases, power (μW) versus T plots (instead of ΔCp versus T curves) were used for the following reason.
Analysis of DSC data was performed using the Nanoanalyze software package, version 3.7.5, provided by T.A. Instruments. […]
From the thermograms, semi-quantitative evaluations of the thermodynamic parameters ΔHcal, ΔScal and ΔGcal(37° C.) were obtained at each ligand concentration.
These curves were constructed from titrations of DM1 with HSA. The Tm and ΔGcal(37° C.) were evaluated. The values were normalized against standard HSA and plotted versus ligand concentration to provide the dose curves in FIG. 20A (Tm) and FIG. 20B (ΔGcal(37° C.)).
Natural HSA samples were prepared at pH 6.0 and pH 8.0 and examined by DSC. […] From DSC melting curves thermodynamic parameters for HSA/ligand mixtures were evaluated.

[4] abbreviates: Average Measured KD, binding to HSA; single value or value marked 1).
The mark [5] stands for this setting: Measured KD From TM, binding to HSA; single value or value marked 1).
[6] abbreviates: Measured KD from ΔG^037, binding to HSA; single value or value marked 1).
[7] abbreviates: read-out: Average Measured KD; binding to HSA; single value or value marked 1).
Where [8] appears, read: read-out: Measured KD From TM; binding to HSA; single value or value marked 1).
Setting [9] is: read-out: Measured KD from ΔG^037; binding to HSA; single value or value marked 1).

Read-outs that look alike come from different tables or passages of the source.

T1 sequence (P02768 25-609): as above

Consider `O=C([O-])CN(CCN(CC(=O)[O-])CC(COP(=O)(O)OC1CCC(c2ccccc2)(c2ccccc2)CC1)N(CC(=O)[O-])CC(=O)[O-])CC(=O)O.[Gd+3].[Na+]` (stereo not drawn) [Ablavar (AB)], for which, at HSA [1], the Kd is 60.4 µM.

Regarding `C=CC1=C(C)/C(=C/c2[nH]c(Cc3[nH]c(/C=C4\NC(=O)C(C)=C4C=C)c(C)c3CCC(=O)O)c(CCC(=O)O)c2C)NC1=O` [Bilirubin (BIL), Bilirubin], the Kd was 0.074 µM on HSA [1], 0.33 µM at HSA [2] (setting [4]), 0.41 µM on HSA [2] (setting [5]) and 0.25 µM at HSA [2] (setting [6]).

Take `CC(NC(C)(C)C)C(=O)c1cccc(Cl)c1` (stereo not drawn) [Bupropion (BPR), Bupropion]: the Kd on HSA [1] is 172 µM; at HSA [2] (Average Measured KD, binding to HSA; second value marked 2)), 19.5 µM; on HSA [2] (setting [4]), 0.25 µM; at HSA [2] (Measured KD From TM, binding to HSA; second value marked 2)), 28.8 µM; at HSA [2] (setting [5]) it was 0.28 µM; at HSA [2] (Measured KD from ΔG^037, binding to HSA; second value marked 2)), 10.2 µM. This compound also yielded a dissociation constant (Kd) on HSA [2] (setting [6]) of 0.21 µM.

For the compound `CCN(CC)CCCC(C)Nc1ccnc2cc(Cl)ccc12` (stereo not drawn) [CQ, Chloroquine], the “effect on fibrinogen melting transition peak (52° C.) of the plasma thermogram” value in the data set on human plasma is “significant perturbation”. Besides, the “Implied number of sites” value in data set [3] was 1.

Consider `C[C@H](CS)C(=O)N1CCC[C@H]1C(=O)O` [Captopril (CAP), Captopril], for which the Kd is 192 µM on HSA [1], 3.75 µM at HSA [2] (setting [4]), 5.44 µM on HSA [2] (setting [5]) and 2.05 µM at HSA [2] (setting [6]).

Take `O=C([O-])CN1CCN(CC(=O)[O-])CCN(CC(=O)O)CCN(CC(=O)[O-])CC1.[Gd+3]` [Dotarem (DOTA), gadoteric acid]: on HSA [1], the “reported HSA binding activity” value was “not have any measurable HSA binding activity”. Besides, the “Measured HSA binding (cell spanning the measured KD columns; same in text)” value is “No Binding Detected” at HSA [2] and “no binding was observed” at HSA [2] (listed as Dotarem).

Take `O=C1OC2(c3ccc(O)cc3Oc3cc(O)ccc32)c2ccccc21` [Fluorescein (FSC), Fluorescein]: the Kd on HSA [1] is 212 µM; at HSA [2] (setting [4]) it was 68 µM; on HSA [2] (setting [5]) it was 79.8 µM; at HSA [2] (setting [6]), 56.2 µM.

Turning to `COCCc1ccc(OCC(O)CNC(C)C)cc1` (stereo not drawn) [Metoprolol (MEP), Metoprolol], the Kd at HSA [1] is 74.1 µM; at HSA [2] (setting [4]), 11.1 µM; at HSA [2] (setting [5]) it was 3.04 µM; on HSA [2] (setting [6]) it was 19.2 µM.

With `CNC[C@H](O)[C@@H](O)[C@H](O)[C@H](O)CO.CNC[C@H](O)[C@@H](O)[C@H](O)[C@H](O)CO.O=C([O-])CN(CCN(CC(=O)[O-])CC(=O)O)CCN(CC(=O)O)C(COCc1ccccc1)C(=O)[O-].[Gd+3]` (stereo not drawn) [Multihance (MH)], the Kd at HSA [1] is 1950 µM; at HSA [2] (setting [7]) it was 1340 µM; on HSA [2] (setting [8]), 1380 µM; on HSA [2] (setting [9]) it was 1290 µM.

As to `CC(O)CN1CCN(CC(=O)[O-])CCN(CC(=O)[O-])CCN(CC(=O)[O-])CC1.[Gd+3]` (stereo not drawn) [Prohance (PRO), gadoteridol], on HSA [1], the “reported HSA binding activity” value is recorded as “not display HSA binding activity”.

Take `C[CH2][Hg][S]c1ccccc1C(=O)[O-].[Na+]` [Thimerosal (TMS), Thimerosal]: the Kd at HSA [1] was 339 µM.

Turning to `CCCCCc1cc(O)c2c(c1)OC(C)(C)[C@@H]1CCC(C)=C[C@@H]21` [Δ9-tetrahydrocannabinol (THC), Δ9-tetrahydrocannabinol], the Kd on HSA [1] was no more than 0.1 µM; on HSA [2] (setting [7]) it was 0.035 µM; on HSA [2] (setting [8]), 0.025 µM; at HSA [2] (setting [9]) it was 0.048 µM.

Usually Kd stands for a measure of binding affinity in units of concentration.
